# Tests used:
# Poa annua [1] = assay: Example 1: adjuvants alone, visual % damage, pots in glasshouse; assay type: in vivo
# Experimental: (§1) The effect of different adjuvants (see Table 1 below) on the growth of broadleaf weed and grass species was investigated and compared to untreated (water only) control weeds.
# (§2) Plates, each with 48 pots measuring 2.7 cm diameter and 5 cm deep, were filled with TKS1 growing media (Floragard, Germany). Seeds of Taraxacum officinale, Stellaria media or Poa annua were sown on the surface (10 to 20 per pot). Plants were grown in glasshouse at a temperature of 18 to 20° C. and at 60% relative humidity.
# (§3) Plants were treated 15 (Stellaria, Poa) and 34 (Taraxacum) days after sowing with 60 μl of a 1.25, 2.5, 5 and 10% (w/v) solution of adjuvant using a hand airbrush.
# (§4) Visual assessment of the percentage damage to the plant was carried out 1 day and 6 days from application.
# (§5) Damage was assessed as wilting, desiccation or any other kind of visual injury in comparison to the untreated control (water only).
# Stellaria media [2] = assay: as above; assay type: in vivo
# Experimental: as §1, §2, §3, §4, §5
# Taraxacum officinale = assay: as above; assay type: in vivo
# Experimental: as §1, §2, §3, §4, §5
# Poa annua [3] = assay: Example 2: alcohol ethoxylate adjuvants without glyphosate, visual % damage, tracksprayer 300 l/ha; assay type: in vivo
# Summary of the method: (§6)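 Veronica persica, Stellaria media, Trifolium repens and Poa annua were sown 24 days before treatment and grown in a glasshouse at 18–20 °C and 60% RH. Alcohol ethoxylates without glyphosate were track-sprayed at 300 l/ha. Visual % damage (wilting, desiccation, other injury) versus water-only controls was scored 1, 7 and 14 days after application.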
# Stellaria media [4] = assay: as above; assay type: in vivo
# Summary of the method: as §6
# Trifolium repens = assay: as above; assay type: in vivo
# Summary of the method: as §6
# Veronica persica = assay: as above; assay type: in vivo
# Summary of the method: as §6
# Dandelion = assay: Example 3: branched chain alcohol ethoxylates in admixture with glyphosate, visual % damage, 600 l/ha; assay type: in vivo; conditions: adjuvant where present 5% w/v
# Experimental: (§7) The effects of different branched chain alcohol ethoxylates in admixture with glyphosate on both Dandelions and a mixture of grasses were investigated.
# (§8) Dandelion samples and a mixture of grasses obtained from a meadow environment were planted into square 20 cm pots and kept and grown on in glasshouse for at least 2 weeks (18 to 20° C., 60% relative humidity).
# (§9) Application of branched chain alcohol ethoxylate was carried out using a tracksprayer, spraying at a rate of 600 l/ha.
# (§10) Visual assessment of the estimated percentage damage to the plant was carried out 1, 6, 13, and 20 days from application.
# as §5
# Grass mix = assay: as above; assay type: in vivo, mixture of grasses; conditions: adjuvant where present 5% w/v
# Experimental: as §7, §8, §9, §10, §5
# [5] = system: broadleaf weeds and grasses; assay: Example 1: overall statement on adjuvants alone; assay type: in vivo; conditions: 1 and 6 days after treatment, adjuvant alone
# Experimental: as §1, §2, §3, §4, §5
# [6] = system: broadleaf weed and grass species; assay: Example 2: overall statement on alcohol ethoxylates without glyphosate; assay type: in vivo; conditions: absence of glyphosate
# Excerpt: The effect of different types of alcohol ethoxylate (branched—Genapol X-series, and unbranched—Genapol O-series, differing degrees of ethoxylation, see Table 3 below for more details), on unwanted vegetation (broadleaf weed and grass species), in the absence of glyphosate, was investigated and compared to untreated (water only) control weeds.
# Troughs (measuring 16 cm by 13 cm by 5 cm) were filled with local field soil. Seeds of Veronica persica, Stellaria media, Trifolium repens and Poa annua were sown 24 days before application of test samples. Plants were grown in the glasshouse at 18 to 20° C. and 60% relative humidity. Application of alcohol ethoxylate test samples was carried out using a tracksprayer, spraying at a rate of 300 l/ha. Plants were kept in glasshouse and visual assessment of the estimated percentage damage to the plant was carried out 1, 7, and 14 days from application.
# as §5
# [7] = system: Dandelions and a mixture of grasses; assay: Example 3: overall statement, Dandelions and mixture of grasses; assay type: in vivo; conditions: absence of glyphosate, 5% w/v
# Experimental: as §7, §8, §9, §10, §5
# [8] = system: broadleaf weeds and grasses; assay: Example 4: overall statement, broadleaf weeds and grasses; assay type: in vivo; conditions: 2.5% w/v in admixture with glyphosate (Weedbuster)
# Excerpt: The effect on broadleaf weeds and grasses of different concentrations of Genapol™ X060 (iso-tridecyl alcohol polyglycol ether with 6 moles of ethoxylation) in admixture with glyphosate was investigated.
# Troughs (measuring 55 cm by 9 cm by 8.5 cm) were filled with local field soil. Seeds of Taraxacum officinale, Urtica dioica, Trifolium repens and Poa annua were sown 41 days before application of test samples, and seeds of Stellaria media, Veronica persica, Agropyron repens and Lolium multiflorum were sown 24 days before application of test samples. Plants were grown in the glasshouse at 18 to 20° C. and 60% relative humidity. One week before application of test samples, troughs were placed outside (but covered).
# Application of test samples was carried out using a tracksprayer, spraying at a rate of 300 l/ha. Treated plants were kept outside and visual assessment of the percentage damage to the plants was carried out at 1, 7, 14, and 21 days after application.
# as §5
substance,measurement,setting,value
Iso-tridecyl alcohol polyglycol ether with 6 moles of ethoxylation [GenapolX060],avg % damage 1 DAA Poa annua,Poa annua [1]; adjuvant 1.25% w/v,45%
same,avg % damage 6 DAA Poa annua,Poa annua [1]; adjuvant 1.25% w/v,50%
same,avg % damage 1 DAA Poa annua,Poa annua [1]; adjuvant 2.5% w/v,55%
same,avg % damage 6 DAA Poa annua,Poa annua [1]; adjuvant 2.5% w/v,70%
same,avg % damage 1 DAA Poa annua,Poa annua [1]; adjuvant 5% w/v,75%
same,avg % damage 6 DAA Poa annua,Poa annua [1]; adjuvant 5% w/v,80%
same,avg % damage 1 DAA Poa annua,Poa annua [1]; adjuvant 10% w/v,70%
same,avg % damage 6 DAA Poa annua,Poa annua [1]; adjuvant 10% w/v,80%
same,avg % damage 1 DAA Stellaria media,Stellaria media [2]; adjuvant 1.25% w/v,25%
same,avg % damage 6 DAA Stellaria media,Stellaria media [2]; adjuvant 1.25% w/v,35%
same,avg % damage 1 DAA Stellaria media,Stellaria media [2]; adjuvant 2.5% w/v,30%
same,avg % damage 6 DAA Stellaria media,Stellaria media [2]; adjuvant 2.5% w/v,40%
same,avg % damage 1 DAA Stellaria media,Stellaria media [2]; adjuvant 5% w/v,35%
same,avg % damage 6 DAA Stellaria media,Stellaria media [2]; adjuvant 5% w/v,65%
same,avg % damage 1 DAA Stellaria media,Stellaria media [2]; adjuvant 10% w/v,60%
same,avg % damage 6 DAA Stellaria media,Stellaria media [2]; adjuvant 10% w/v,85%
same,avg % damage 1 DAA Taraxacum officinale,Taraxacum officinale; adjuvant 1.25% w/v,5%
same,avg % damage 6 DAA Taraxacum officinale,Taraxacum officinale; adjuvant 1.25% w/v,20%
same,avg % damage 1 DAA Taraxacum officinale,Taraxacum officinale; adjuvant 2.5% w/v,10%
same,avg % damage 6 DAA Taraxacum officinale,Taraxacum officinale; adjuvant 2.5% w/v,20%
same,avg % damage 1 DAA Taraxacum officinale,Taraxacum officinale; adjuvant 5% w/v,30%
same,avg % damage 6 DAA Taraxacum officinale,Taraxacum officinale; adjuvant 5% w/v,40%
same,avg % damage 1 DAA Taraxacum officinale,Taraxacum officinale; adjuvant 10% w/v,45%
same,avg % damage 6 DAA Taraxacum officinale,Taraxacum officinale; adjuvant 10% w/v,35%
same,mean % damage 1 daa Poa annua,Poa annua [3]; adjuvant 1% w/v,20%
same,mean % damage 7 daa Poa annua,Poa annua [3]; adjuvant 1% w/v,30%
same,mean % damage 14 daa Poa annua,Poa annua [3]; adjuvant 1% w/v,10%
same,mean % damage 1 daa Poa annua,Poa annua [3]; adjuvant 1.5% w/v,20%
same,mean % damage 7 daa Poa annua,Poa annua [3]; adjuvant 1.5% w/v,40%
same,mean % damage 14 daa Poa annua,Poa annua [3]; adjuvant 1.5% w/v,10%
same,mean % damage 1 daa Poa annua,Poa annua [3]; adjuvant 2% w/v,40%
same,mean % damage 7 daa Poa annua,Poa annua [3]; adjuvant 2% w/v,50%
same,mean % damage 14 daa Poa annua,Poa annua [3]; adjuvant 2% w/v,15%
same,mean % damage 1 daa Poa annua,Poa annua [3]; adjuvant 2.5% w/v,40%
same,mean % damage 7 daa Poa annua,Poa annua [3]; adjuvant 2.5% w/v,50%
same,mean % damage 14 daa Poa annua,Poa annua [3]; adjuvant 2.5% w/v,0%
same,mean % damage 1 daa Stellaria media,Stellaria media [4]; adjuvant 1% w/v,5%
same,mean % damage 7 daa Stellaria media,Stellaria media [4]; adjuvant 1% w/v,5%
same,mean % damage 14 daa Stellaria media,Stellaria media [4]; adjuvant 1% w/v,0%
same,mean % damage 1 daa Stellaria media,Stellaria media [4]; adjuvant 1.5% w/v,10%
same,mean % damage 7 daa Stellaria media,Stellaria media [4]; adjuvant 1.5% w/v,10%
same,mean % damage 14 daa Stellaria media,Stellaria media [4]; adjuvant 1.5% w/v,0%
same,mean % damage 1 daa Stellaria media,Stellaria media [4]; adjuvant 2% w/v,10%
same,mean % damage 7 daa Stellaria media,Stellaria media [4]; adjuvant 2% w/v,30%
same,mean % damage 14 daa Stellaria media,Stellaria media [4]; adjuvant 2% w/v,10%
same,mean % damage 1 daa Stellaria media,Stellaria media [4]; adjuvant 2.5% w/v,20%
same,mean % damage 7 daa Stellaria media,Stellaria media [4]; adjuvant 2.5% w/v,40%
same,mean % damage 14 daa Stellaria media,Stellaria media [4]; adjuvant 2.5% w/v,20%
same,mean % damage 1 daa Trifolium repens,Trifolium repens; adjuvant 1% w/v,40%
same,mean % damage 7 daa Trifolium repens,Trifolium repens; adjuvant 1% w/v,40%
same,mean % damage 14 daa Trifolium repens,Trifolium repens; adjuvant 1% w/v,0%
same,mean % damage 1 daa Trifolium repens,Trifolium repens; adjuvant 1.5% w/v,60%
same,mean % damage 7 daa Trifolium repens,Trifolium repens; adjuvant 1.5% w/v,50%
same,mean % damage 14 daa Trifolium repens,Trifolium repens; adjuvant 1.5% w/v,0%
same,mean % damage 1 daa Trifolium repens,Trifolium repens; adjuvant 2% w/v,70%
same,mean % damage 7 daa Trifolium repens,Trifolium repens; adjuvant 2% w/v,60%
same,mean % damage 14 daa Trifolium repens,Trifolium repens; adjuvant 2% w/v,0%
same,mean % damage 1 daa Trifolium repens,Trifolium repens; adjuvant 2.5% w/v,70%
same,mean % damage 7 daa Trifolium repens,Trifolium repens; adjuvant 2.5% w/v,60%
same,mean % damage 14 daa Trifolium repens,Trifolium repens; adjuvant 2.5% w/v,5%
same,mean % damage 1 daa Veronica persica,Veronica persica; adjuvant 1% w/v,10%
same,mean % damage 7 daa Veronica persica,Veronica persica; adjuvant 1% w/v,10%
same,mean % damage 14 daa Veronica persica,Veronica persica; adjuvant 1% w/v,5%
same,mean % damage 1 daa Veronica persica,Veronica persica; adjuvant 1.5% w/v,20%
same,mean % damage 7 daa Veronica persica,Veronica persica; adjuvant 1.5% w/v,20%
same,mean % damage 14 daa Veronica persica,Veronica persica; adjuvant 1.5% w/v,10%
same,mean % damage 1 daa Veronica persica,Veronica persica; adjuvant 2% w/v,70%
same,mean % damage 7 daa Veronica persica,Veronica persica; adjuvant 2% w/v,70%
same,mean % damage 14 daa Veronica persica,Veronica persica; adjuvant 2% w/v,50%
same,mean % damage 1 daa Veronica persica,Veronica persica; adjuvant 2.5% w/v,60%
same,mean % damage 7 daa Veronica persica,Veronica persica; adjuvant 2.5% w/v,40%
same,mean % damage 14 daa Veronica persica,Veronica persica; adjuvant 2.5% w/v,40%
same,% Damage 1 daa Dandelion,Dandelion,40%
same,% Damage 6 daa Dandelion,Dandelion,50%
same,% Damage 13 daa Dandelion,Dandelion,30%
same,% Damage 20 daa Dandelion,Dandelion,20%
same,% Damage 1 daa Grass mix,Grass mix,20%
same,% Damage 6 daa Grass mix,Grass mix,50%
same,% Damage 13 daa Grass mix,Grass mix,40%
same,% Damage 20 daa Grass mix,Grass mix,40%
same,visual symptoms of phytotoxicity,[5],comparatively high level of visual symptoms of phytoxicity
same,course of damage over time (recovery),[6],the level of damage decreases from day 14 onwards
same,course of damage over time (recovery),[7],the level of damage decreases from day 13 onwards
same,rapid symptomology versus Roundup and Weedbuster,[8],more rapid symptomology against all weeds in comparison to Roundup

# Reference: patent US20130252816A1, “HERBICIDAL COMPOSITION AND USE THEREOF” (Syngenta Crop Protection LLC, priority 2010, published 2013)
